Experimental data: US10745395B2, “Compounds for their use as drugs for the treatment and/or the prevention of infection(s) caused by biofilm-forming bacteria” (CENTRE NATIONAL DE LA RECHERCHE SCIENTIFIQUE, priority 2014, dated 2020)

Assays:
Format in all cases: cell-based, Pseudomonas aeruginosa
[1] = tested on: P. aeruginosa strain PAR 20 biofilm; assay: Early biofilm model, Congo red staining; conditions: for absorbance (Congo red, biofilm formation): early biofilm, 0.9 mM, 492 nm
Method: (§1) P. aeruginosa biofilm was set-up in sterile plastic 96-well plates with adherent surface (Greiner Bio-One, USA).
(§2) Twenty microliter quantities of the bacterial stock suspensions, prepared as described above, were added to each well followed with 180 μl of sterile TSB. Final concentration of the bacteria was 1×10^8 CFU/ml.
(§3) The plates were centrifuged for 10 minutes at 2000 rpm to sediment bacteria on the bottom of each well and then incubated for 72 hours (37° C., aerobic conditions).
(§4) Biofilm quantity was determined using Congo red dye according to a modified procedure described by Allison et al. (Allison G C, Sutherland I W. A staining technique for bacteria and its correlation to extracellular carbohydrate production. J Microbiol Meth 2, 93-99 (1984)).
(§5) Briefly, at different time points (0, 6, 18, 24, 48 and 72 hours), the culture medium was gently removed from wells by using the pipette and immediately 200 μl of 0.1% Congo red solution was added. The plates were left for 30 minutes at room temperature and then 10 minutes before the end of staining, the plate was centrifuged for 10 minutes at 2000 rpm and then washed twice with buffered saline to remove unbound dye. Absorbance was measured at λ=492 nm wavelength using spectrophotometer (Awarness Technology Inc., Palm City, Fla., USA). All measurements were performed in triplicates and mean values±SD are given.
(§6) Early biofilm model: formation of early biofilm under influence of the tested substances was observed by filling wells of a 96-well plate with 20 μl of P. aeruginosa suspension and 180 μl of TSB, as described above. Tested iminosugars (compounds 1, 2, 3 and 4) were added immediately after setting-up the bacteria at a final concentration of 0.9 mM. Then, the plate was gently mixed and incubated for 48 hours at 37° C.
(§7) Biofilm formation and the number of viable bacteria were checked in parallel in the following time intervals: 0, 0.5, 8, 24, 48 hours, in accordance with the procedure described above. Biofilm thickness was estimated by staining it with Cango Red and measuring optical density while number of viable bacteria was performed using the standard viable count method. (Allison G C, Sutherland I W. A staining technique for bacteria and its correlation to extracellular carbohydrate production. J Microbiol Meth 2, 93-99 (1984)).
(§8) P. aeruginosa suspension cultures in TSB broth alone were used as a control.

[2] = tested on: P. aeruginosa strain PAR 5 biofilm; assay: Early biofilm model, Congo red staining; conditions: for absorbance (Congo red, biofilm formation): 0.9 mM, 492 nm
Method: as §1, §2, §3, §4, §5, §6, §7, §8

[3] = tested on: P. aeruginosa strain PAR 50 biofilm; assay: Early biofilm model, Congo red staining; conditions: for absorbance (Congo red, biofilm formation): early biofilm, 0.9 mM, 492 nm
Method: as §1, §2, §3, §4, §5, §6, §7, §8

[4] = tested on: P. aeruginosa strain PAR 20 biofilm; assay: Mature biofilm model, Congo red staining; conditions: for absorbance (Congo red, biofilm development): mature biofilm, compound added 48 h after induction of biofilm
Method: as §4, §5
(§9) Mature biofilm model: the tested substances were added 48 hours after adherence of bacteria to the wells in a 96-well plate. The growth conditions of P. aeruginosa were exactly the same, as described above for the early biofilm model.
(§10) After the addition of iminosugars (compounds 1, 2, 3 and 4), the biofilm formation and the number of viable bacteria were checked in the following time intervals: 48, 48.5, 56, 72, 96 hours.

[5] = tested on: P. aeruginosa strain PAR 5 biofilm; assay: Mature biofilm model, Congo red staining; conditions: for absorbance (Congo red, biofilm development): mature biofilm, compound added 48 h after induction of biofilm
Method: as §4, §5, §9, §10

[6] = tested on: P. aeruginosa strain PAR 50 biofilm; assay: Mature biofilm model, Congo red staining; conditions: for absorbance (Congo red, biofilm development): mature biofilm, compound added 48 h after induction of biofilm
Method: as §4, §5, §9, §10

[7] = tested on: P. aeruginosa strain PAR 20; assay: Number of viable bacteria in early and mature biofilm (viable count)
Method: as §7, §10
(§11) Numbers of viable bacteria contained in the early and mature biofilm were estimated on separate plates with wells filled with tested P. aeruginosa strains as described above (PAR 5, PAR 20, PAR 50).
(§12) At the same time intervals, biofilm content in each well was removed and mixed by multiple pippeting and transferred to sterile tubes. Then decimal dilutions of the bacterial suspension were made in TSB broth, plated on McConkey Agar (Oxoid), and incubated at 37° C. for 24 hours.
(§13) Numbers of colonies grown on platter were counted and total numbers of the viable bacteria calculated as colony forming units (CFU) per ml.
(§14) The results depict logs of CFU/ml for three P. aeruginosa strains: PAR 5, PAR 20 and PAR 50 measured at different time intervals (0 hours, 8 hours, 24 hours, 48 hours, 56 hours, 72 hours and 96 hours). The detection limit is 100 CFU/ml.

[8] = tested on: P. aeruginosa strain PAR 50; assay: as above
Method: as §7, §10, §11, §12, §13, §14

[9] = tested on: P. aeruginosa strain PAR 5; assay: as above
Method: as §7, §10, §11, §12, §13, §14

[10] = tested on: P. aeruginosa strain PAR 5 biofilm; assay: Reduction of biofilm growth (percent vs culture control)
Text: (§15) FIG. 4A represents the effect of the tested compounds (1, 2, 3 and 4) on exopolysaccharide biosynthesis in the early stages and mature P. aeruginosa biofilm formation, strain PAR 5. The abscissa represents the time (in hours) in order to differentiate early biofilm and mature biofilm, and the ordinate represents the percentage of the biofilm reduction.
as §6, §9
(§16) The effect of the tested compounds (1, 2, 3 and 4) on the reduction of biofilm growth has also been studied on the three P. aeruginosa strains PAR 5, PAR 20, PAR 50.
(§17) (Percent decrease in biofilm thickness was obtained as a mean value from 3 consecutive measurements of the Congo Red stained biofilm using spectrophotometer after addition of the tested iminosugars in comparison to control regarded as 100%).

[11] = tested on: P. aeruginosa strain PAR 20 biofilm; assay: as above
Text: as §15, with “4B” for “4A”, “20.” for “5.”
as §6, §9, §16, §17

[12] = tested on: P. aeruginosa strain PAR 50 biofilm; assay: as above
Text: as §15, with “4C” for “4A”, “50.” for “5.”
as §6, §9, §16, §17

[13] = in comparison with culture control

## COc1ccc(C[C@@H]2CCC[C@@H]3[C@H](O)[C@@H](O)[C@H](CO)N23)cc1 [Compound 3, (1S,2S,3S,5S,9R)-1,2-dihydroxy-3-hydroxymethyl-5-p-methoxybenzylindolizidine]
[1]; 8 hours
  absorbance (Congo red, biofilm formation): about 0.75 a.u.
[1]; 24 hours
  absorbance (Congo red, biofilm formation): about 0.7 a.u.
[1]; 48 hours
  absorbance (Congo red, biofilm formation): about 0.7 a.u.
[1]; [13]
  effect on formation of an early biofilm: inhibit the formation of an early biofilm
[2]; early biofilm
  biofilm formation at 8 hours, 24 hours and 48 hours: no biofilm formation
[2]; early biofilm, 8 hours
  absorbance (Congo red, biofilm formation): about 0.25 a.u.
[2]; early biofilm, 24 hours
  absorbance (Congo red, biofilm formation): about 0.25 a.u.
[2]; early biofilm, 48 hours
  absorbance (Congo red, biofilm formation): about 0.25 a.u.
[2]; [13]
  effect on formation of an early biofilm: inhibit the formation of an early biofilm
[3]; 8 hours
  absorbance (Congo red, biofilm formation): about 0.8 a.u.
[3]; 24 hours
  absorbance (Congo red, biofilm formation): about 0.25 a.u.
[3]; 48 hours
  absorbance (Congo red, biofilm formation): about 0.25 a.u.
[3]; [13]
  effect on formation of an early biofilm: inhibit the formation of an early biofilm
[4]
  influence on mature biofilm formation: weak influence
[4]; 48 hours
  absorbance (Congo red, biofilm development): about 0.6 a.u.
[4]; 56 hours
  absorbance (Congo red, biofilm development): about 1.1 a.u.
[4]; 72 hours
  absorbance (Congo red, biofilm development): about 0.75 a.u.
[4]; 96 hours
  absorbance (Congo red, biofilm development): about 1.5 a.u.
[5]
  influence on mature biofilm formation: weak influence
[5]; 48 hours
  absorbance (Congo red, biofilm development): about 0.75 a.u.
[5]; 56 hours
  absorbance (Congo red, biofilm development): about 1.25 a.u.
[5]; 72 hours
  absorbance (Congo red, biofilm development): about 1.25 a.u.
[5]; 96 hours
  absorbance (Congo red, biofilm development): about 1.25 a.u.
[6]
  influence on mature biofilm formation: weak influence
[6]; 48 hours
  absorbance (Congo red, biofilm development): about 1.25 a.u.
[6]; 56 hours
  absorbance (Congo red, biofilm development): about 1.0 a.u.
[6]; 72 hours
  absorbance (Congo red, biofilm development): about 2.0 a.u.
[6]; 96 hours
  absorbance (Congo red, biofilm development): about 2.5 a.u.
[7]; early biofilm, 0 h
  number of viable P. aeruginosa: 5 × 10^6 CFU/ml
[7]; early biofilm, 8 h
  number of viable P. aeruginosa: 3 × 10^7 CFU/ml
[7]; early biofilm, 24 h
  number of viable P. aeruginosa: 5 × 10^8 CFU/ml
[7]; early biofilm, 48 h
  number of viable P. aeruginosa: 3 × 10^9 CFU/ml
[7]; mature biofilm, 56 h
  number of viable P. aeruginosa: 3 × 10^8 CFU/ml
[7]; mature biofilm, 72 h
  number of viable P. aeruginosa: 7 × 10^7 CFU/ml
[7]; mature biofilm, 96 h
  number of viable P. aeruginosa: 7 × 10^7 CFU/ml
[8]; early biofilm, 0 h
  number of viable P. aeruginosa: 4 × 10^7 CFU/ml
[8]; early biofilm, 8 h
  number of viable P. aeruginosa: 1 × 10^8 CFU/ml
[8]; early biofilm, 24 h
  number of viable P. aeruginosa: 6 × 10^8 CFU/ml
[8]; early biofilm, 48 h
  number of viable P. aeruginosa: 6 × 10^8 CFU/ml
[8]; mature biofilm, 56 h
  number of viable P. aeruginosa: 4 × 10^8 CFU/ml
[8]; mature biofilm, 72 h
  number of viable P. aeruginosa: 5 × 10^9 CFU/ml
[8]; mature biofilm, 96 h
  number of viable P. aeruginosa: 8 × 10^9 CFU/ml
[9]; early biofilm, 0 h
  number of viable P. aeruginosa: 6 × 10^6 CFU/ml
[9]; early biofilm, 8 h
  number of viable P. aeruginosa: 4 × 10^7 CFU/ml
[9]; early biofilm, 24 h
  number of viable P. aeruginosa: 1 × 10^7 CFU/ml
[9]; early biofilm, 48 h
  number of viable P. aeruginosa: 2 × 10^6 CFU/ml
[9]; mature biofilm, 56 h
  number of viable P. aeruginosa: 3 × 10^8 CFU/ml
[9]; mature biofilm, 72 h
  number of viable P. aeruginosa: 2 × 10^8 CFU/ml
[9]; mature biofilm, 96 h
  number of viable P. aeruginosa: 1 × 10^9 CFU/ml
[10]; 8 hours of incubation
  reduction of biofilm growth: about 90%
[10]; 24 hours of incubation
  reduction of biofilm growth: about 90%
[10]; 48 hours of incubation
  reduction of biofilm growth: about 25%
[10]; 72 hours of incubation
  reduction of biofilm growth: about 10%
[10]; notably an early biofilm
  effect on biofilm growth: can reduce the biofilm growth
[11]; 8 hours of incubation
  reduction of biofilm growth: about 50%
[11]; 24 hours of incubation
  reduction of biofilm growth: about 60%
[11]; 48 hours of incubation
  reduction of biofilm growth: about 0%
[11]; 72 hours of incubation
  reduction of biofilm growth: about 20%
[11]; notably an early biofilm
  effect on biofilm growth: can reduce the biofilm growth
[12]; 8 hours of incubation
  reduction of biofilm growth: about 45%
[12]; 24 hours of incubation
  reduction of biofilm growth: about 45%
[12]; 48 hours of incubation
  reduction of biofilm growth: about 5%
[12]; 72 hours of incubation
  reduction of biofilm growth: about 20%
[12]; notably an early biofilm
  effect on biofilm growth: can reduce the biofilm growth
